Several values for one entry are separate records, joined by “and”; a condition that tells them apart may be missing. Equal values may be shown once. Marks after values point to notes of the source that are not given here.

One series relates to Spodoptera frugiperda. In words: Maize leaf fall armyworm damage assay after seed treatment (feeding damage and FAW mortality). The arrangement: Regression for feeding damage by leaf segment, Leaf 3 Middle / Regression for feeding damage by leaf segment, Leaf 3 Tip / Regression for feeding damage by leaf segment, Leaf 4 Middle / Regression for feeding damage by leaf segment, Leaf 4 Tip / Regression for feeding damage by leaf segment, Leaf 5 Middle / Regression for feeding damage by leaf segment, Leaf 5 Tip: unit not given here. To be noted: for Regression for feeding damage by leaf segment, Leaf 3 Middle / Regression for feeding damage by leaf segment, Leaf 3 Tip / Regression for feeding damage by leaf segment, Leaf 4 Middle / Regression for feeding damage by leaf segment, Leaf 4 Tip / Regression for feeding damage by leaf segment, Leaf 5 Middle / Regression for feeding damage by leaf segment, Leaf 5 Tip: coefficient vs Baseline; for Regression for FAW mortality rate (coefficient) / Regression for overall feeding damage (coefficient): vs Baseline, controls for experimental run and tray location; for Regression for FAW mortality rate (coefficient): across six leaf segments per plant; for Regression for overall feeding damage (coefficient): averaged across six leaf segments per plant. It counts as in vivo. The procedure:
An experiment was designed to measure any systemic effects of soil protists in the presence and absence of (agrochemical) insecticide on pest damage resistance for plants grown from seeds. The experiments consisted of two stages: the growth stage and the pest stage. In the growth stage, maize seeds were treated individually with one of six mixtures containing bacteria, protists, and or/agrochemicals. All treatments included heat-killed bacteria, the food source for protists (protozoa). Additional potential components of each treatment were one of two agrochemicals, or soil protists, or one of two agrochemicals plus soil protists (Table 1). Treated seeds were germinated and grown in soil-filled pots in a greenhouse. Plants were grown in surplus quantities and down-selected to 48 representative plants per treatment for each experimental run (Table 2).
In the pest stage, three individual leaves were harvested from each plant, then the Tip and Middle segments of said leaves were collected. Each of the six leaf segments from the plant were placed in individual tray wells and challenged by a single insect larva, as explained further below.
Formulations for seed treatments (Table 1) were prepared in Page's Saline 24 h prior to inoculation and held at 23° C. in darkness. Prior to application, each formulation was vortexed for 30 sec then a small aliquot (50 μL) was added directly on top of each exposed seed during planting. Based on our prior experience, this small-volume-aliquot performs similarly to more conventionally formulated seed coatings, enabling early-stage screening of experimental formulations that are available only in limited quantities.
For each experimental run, 240 pots (10-cm, TLC Square Form Pots, HC Companies) were first filled with dry, steam pasteurized screened field soil (Kalamazoo, Michigan; Coloma loamy sand). The soil was misted with water with an automated system to reach field capacity in the Corteva Agriscience greenhouse located in Indianapolis, IN for at least 4 d prior to planting. Next, 3.8 cm deep, 2 cm wide holes were created in the center of each soil-filled pots, and a single seed was placed tip cap side down 3.8 cm below the soil surface. Each seed was immediately inoculated with a seed treatment (described above, n=60 per treatment). Treated pots were then randomized in the greenhouse to reduce systematic error (FIG. 1A). The greenhouse averaged 23° C. (maximum of 30° C. day and minimum of 19° C. at night). The plants received 100 mL water from the automated system, split over 49 passes, during the first week after planting, and 200 mL water split over 98 passes during the second week after planting.
Leaf segments were harvested on 48 representative plants selected from the 60 pots per treatment (FIG. 1A). Trays were filled in a semi-random fashion with less optimal plants at the end of tray 3 and the most underdeveloped plants being discarded. Plants were numbered as they were selected during the Leaf 3 harvest, and tracked through the harvest of Leaves 4 and 5 for robustness. Maize leaves are labelled according to the order they sprout. Maize was allowed to grow for 10 d before harvesting Leaf 3 and left for another 4 d (14 d total) before harvesting Leave 4, 5 (FIG. 1B). Leaves were segmented with the distal 3.8 cm labelled as Tip. Leaf Middle segments were harvested as a 3.8-cm segment from the middle of the leaf. For smaller leaves (such as the earlier-harvested Leaf 3), the Middle abutted the Tip. For larger leaves (4th and 5th), any section between Tip and Middle segments was discarded. For agrochemicals which translocate, such as those tested here, the agrochemical accumulates in the leaf Tips. By testing both leaf Tip and Middle, the relative amount of agrochemical moved by phloem or xylem transport since the leaf sprouted can be measured (Tip) along with the agrochemical in the process of transportation during harvest (Middle). […]

Series [1] can be described thus: Transport of 14C-labeled Chlorantraniliprole in maize (autoradiography, combustion analysis). As to conditions: maize (Zea mays L.), in vivo, 7 d. The procedure: A scaled-up version of the μ-rhizoslide was developed to work with maize. First, ^14C-labeled agrochemical was dissolved in acetone, spiked onto the wall of a glass sample vial, and the acetone evaporated. Un-radiolabeled agrochemical formulation was then added to the vial and sonicated for 20 min to distribute the ^14C-labeled material into the formulation. The formulation was then mixed with Page's Saline containing heat-killed E. coli, or with Page's Saline containing both protists and heat-killed E. coli to prepare the seed treatments formulation. As described before, the ^14C-labeled seed treatment formulations were allowed to rest in darkness for 24 h prior to application. Final radioactivity was measured at approximately 300,000 DPM per individual seed treatment. Pots were filled, and seeds planted and treated as described above. Plants were harvested at 1 week due to restricted space for work with radiolabeled material. […]
A similar experiment was conducted using ^14C-labeled Chlorantraniliprole, differing in the allocated growth period (7 vs 14 d), watering schedule (due to limitations of radioactive containment), and pot (3D printed device optimized for radio-detection vs traditional 4.5″ pot). Radioactivity in both the plant material and the soil were measured before combustion analysis was conducted on the plant material.

A further series concerns UC-1 cultures. In words: Screen of candidate formulations for operational toxicity to UC-1 cultures. As to conditions: concentrated formulation.
The mark [2] stands for this setting: Table 6 (Chlorantraniliprole data set).

Description for UC-1 cultures: Finally, candidate formulations were screened for operational toxicity to UC-1 cultures (i.e., live protists in a concentrated formulation should remain viable and actively moving). […] Both agrochemicals were used in their like-commercial formulations, which is a proprietary blend containing biocides and other ingredients needed to keep the agrochemical suspended and maintain performance.

For the compound `CNC(=O)c1cc(Cl)cc(C)c1NC(=O)c1cc(Br)nn1-c1ncccc1Cl` [Chlorantraniliprole, chlorantraniliprole], in the series with Spodoptera frugiperda (setting [2]), the “Regression for feeding damage by leaf segment, Leaf 3 Middle” value is reported as −36.100***; the “Regression for feeding damage by leaf segment, Leaf 3 Tip” value is listed as −65.841***; the “Regression for feeding damage by leaf segment, Leaf 4 Middle” value is given as −6.424**; the “Regression for feeding damage by leaf segment, Leaf 4 Tip” value is recorded as −46.026***. In the series with Spodoptera frugiperda (setting [2]), the “Regression for feeding damage by leaf segment, Leaf 5 Middle” value is recorded as −2.566 and the “Regression for feeding damage by leaf segment, Leaf 5 Tip” value is reported as −34.783***. Moreover, in the series on Spodoptera frugiperda (in vivo), the “Reduction of feeding damage from Baseline, Leaf 4 Middle” value was 7.2 percentage points and the “Reduction of feeding damage from Baseline, Leaf 5 Middle” value amounted to 3.5 percentage points. Further, in the series on Spodoptera frugiperda (leaf harvested 14 d), the “Feeding damage, Leaf 4 Middle” value is 86% and 86.4%; the “Feeding damage, Leaf 4 Tip” value was 49%; the “Feeding damage, Leaf 5 Middle” value stood at 88%. Besides, in the series with Spodoptera frugiperda, the “Regression for FAW mortality rate (coefficient)” value was 20.341*** and the “Regression for overall feeding damage (coefficient)” value is recorded as −31.836***. In addition, the “Distribution of 14C-labeled Chlorantraniliprole in plant parts” value in series [1] was “higher concentration of Chlorantraniliprole in earlier parts (stem, Leaf 1)”. Further, the “Operational toxicity to UC-1 cultures (live protists remain viable and actively moving)” value in the series with UC-1 cultures was “satisfied all criteria”.
Turning to Spinosad, in the series with Spodoptera frugiperda (Table 7 (Spinosad data set)), the “Regression for feeding damage by leaf segment, Leaf 3 Middle” value was −45.225***; the “Regression for feeding damage by leaf segment, Leaf 3 Tip” value is −59.140***; the “Regression for feeding damage by leaf segment, Leaf 4 Middle” value is listed as −40.880***; the “Regression for feeding damage by leaf segment, Leaf 4 Tip” value is listed as −59.365***. Moreover, in the series on Spodoptera frugiperda (Table 7 (Spinosad data set)), the “Regression for feeding damage by leaf segment, Leaf 5 Middle” value is reported as −10.627*** and the “Regression for feeding damage by leaf segment, Leaf 5 Tip” value is recorded as −29.736***. In the series with Spodoptera frugiperda (in vivo), the “Reduction of feeding damage from Baseline, Leaf 4 Tip” value is 58.5 percentage points and the “Reduction of feeding damage from Baseline, Leaf 5 Middle” value amounted to 9.5 percentage points. In the series with Spodoptera frugiperda (leaf harvested 14 d), the “Feeding damage, Leaf 4 Tip” value was roughly 35.0% and the “Feeding damage, Leaf 5 Middle” value is roughly 82.2%. Besides, in the series with Spodoptera frugiperda, the “Regression for FAW mortality rate (coefficient)” value is reported as 33.342*** and the “Regression for overall feeding damage (coefficient)” value is −39.981***.

These data come from patent publication US20250185666A1, “Root-Targeted Delivery of Agrochemicals using Natural Microbial Carriers” (priority 2023, published 2025).
